{"source": "patent US12102631B2", "about": "“Quinolylnitrones for the treatment and prevention of a cerebral stroke or ischaemia” (ISQUAEMIA BIOTECH, S.L., priority 2018, dated 2024)", "key": {"tMCAO in C57BL/6 mice [1]": {"tested_on": "tMCAO in C57BL/6 mice", "conditions": "40 mg/kg; 48 h after treatment; earlier report of the group; cited from earlier work"}, "[2]": {"tested_on": "Carrageenan-induced rat paw edema", "test": "Inhibition of Carrageenan-induced rat paw edema", "type": "in vivo, Fisher 344 rats", "conditions": "0.01 mmol/kg intraperitoneally; 3.5 h after Carrageenan", "method": "Inhibition of the Carrageenan-induced edema. Edema was induced in the right hind paw of Fisher 344 rats (150-200 g) by the intradermal injection of 0.1 mL 2% Carrageenan in water. Both sexes were used. Females pregnant were excluded. Each group was composed of 6 animals. The experiment was performed twice for validation. The animals, which have been bred in our laboratory, were housed under standard conditions and received a diet of commercial food pellets and water ad libitum during the maintenance, but they were entirely fasted during the experiment period. Nitrone 23 as well as of the standard drug indomethacin in 0.01 mmol/kg body weight, were diluted in water with few drops of Tween 80 and ground in a mortar before use and they were given intraperitoneally simultaneously with the Carrageenan injection. The rats were euthanized 3.5 h after Carrageenan administration. The difference between the weight of the injected and uninjected paws was calculated for each animal. The change in paw weight was compared with that in control animals (treated with water/or Tween-water) and expressed as a percent inhibition of the edema % ICPE values (Table 2). Values % ICPE are the mean from two different experiments (n=6 animals each time) with a standard error of the mean less than 10%."}, "[3]": {"tested_on": "primary neuronal cultures subjected to OGD", "test": "ROS formation in primary neuronal cultures after OGD", "type": "cell-based, rat", "conditions": "2 h recovery after 4 h OGD; significant at 100 μM", "method": "Measurement of the ROS formation. To detect the intracellular ROS formation a nonfluorescent and cell permeable reagent was used according to the supplier instructions (Sigma, MAK143). The reagent enters into the cells and reacts with ROS (especially superoxide and hydroxyl radicals) in the cytoplasm, resulting in a fluorometric product proportional to the amount of ROS present. The reagent was added to the cells at the moment that they were subjected to different treatments. After recovery period for 2 h, the fluorescence intensity was at 490 nm λex and 535 nm λem.\nExposure of neuronal cultures to 4 h OGD induced significant ROS generation after 2 h recovery in normoxic and normoglycemic conditions (R2 h) (210%, p<0.005 compared with 100% control) (FIG. 5A). […] ROS generation may induce lipid peroxidation and cell membrane damage. […] The decrease of ROS formation and lipid peroxidation were significant at 100 μM QN 23, in accordance with the concentration at which the QN 23 had the higher neuroprotective activity against experimental ischemia in neuronal cultures (FIG. 4 and Table 1)."}, "tMCAO in C57BL/6 mice [4]": {"tested_on": "tMCAO in C57BL/6 mice", "test": "Grip strength test after transient middle cerebral artery occlusion (tMCAO)", "type": "in vivo", "method": "Animal model of focal cerebral ischemia. Transient occlusion of a distal branch of the middle cerebral artery (tMCAO) was induced in male C57BL/6 mice (9-12 week old, Charles River) as previously described.^57 The animals were housed in a light/dark cycle (12 hour), humidity and temperature (22±2° C.) controlled environment with food and water available ad libitum. Briefly, mice were anesthetized with 4% isoflurane for induction and 1.5-2% isoflurane for maintenance (in 79% N2/21% O2). After drilling a small hole on the temporal bone, the middle cerebral artery (MCA) was compressed for 60 min with a 30-G needle using a micromanipulator. During the surgery, body temperature was maintained between 37.0±0.5° C. using a homoeothermic blanket and CBF was monitored using laser-Doppler flowmetry to confirm MCA occlusion. Buprenorphine (0.05-0.1 mg/kg) was administered subcutaneously immediately before the procedure. A total of 28 mice were subjected to tMCAO according to the design of the study. We performed a power analysis to determine sample size (significance level set at 0.05, the power set at 0.8 (80%)) resulting in 8 animals per experimental group. Surgical inclusion criteria: a reduction in blood flow to <25% of baseline value during ischemia period, and a recovery of 75% of baseline value in the reperfusion period. […] Mice were randomly assigned using a randomization software to the following experimental groups (n=8 per group): vehicle (saline-EtOH 90:10 vol/vol), nitrone 23 (1.5 mg/kg) and nitrone 23 (2.0 mg/kg). The treatments were administered intraperitoneally at the onset of reperfusion period by a blinded investigator. […]\nMotor-deficit evaluation, grip strength test. […] A total of 6 trials were conducted for each test and the strength value was calculated as the mean of them.\nTo assess the neuroprotective effect of QN 23 on experimental ischemic stroke, we induced a transient middle cerebral artery occlusion (tMCAO) and evaluated the motor deficits by grip strength test at 24 h and 48 h after the administration of QN 23. […]"}, "tMCAO in C57BL/6 mice [5]": {"tested_on": "tMCAO in C57BL/6 mice", "test": "Infarct size (TTC staining) after tMCAO", "type": "in vivo", "conditions": "2.0 mg/kg; 48 h after tMCAO", "method": "Animal model of focal cerebral ischemia. Transient occlusion of a distal branch of the middle cerebral artery (tMCAO) was induced in male C57BL/6 mice (9-12 week old, Charles River) as previously described.^57 The animals were housed in a light/dark cycle (12 hour), humidity and temperature (22±2° C.) controlled environment with food and water available ad libitum. Briefly, mice were anesthetized with 4% isoflurane for induction and 1.5-2% isoflurane for maintenance (in 79% N2/21% O2). After drilling a small hole on the temporal bone, the middle cerebral artery (MCA) was compressed for 60 min with a 30-G needle using a micromanipulator. During the surgery, body temperature was maintained between 37.0±0.5° C. using a homoeothermic blanket and CBF was monitored using laser-Doppler flowmetry to confirm MCA occlusion. […]\nInfarct volume evaluation. The size of infarction was evaluated at 48 hours after MCAO using 2,3,5-tetrazolium chloride (TTC) staining.^58 Mice were sacrificed by transcardial perfusion with ice-cold saline under deep anesthesia. […] The infarct areas were measured using the Image-J software and the infarct volume was determined by linear integration of the measured lesion areas and distances over the sections. […]\nTo examine the efficacy of QN 23 treatment in animals subjected to tMCAO, the infarct size was calculated 48 h after tMCAO model induction. […]"}}, "note": "Read-outs that look alike come from different tables or passages of the source."}
{"smiles": "CC(C)(C)/[N+]([O-])=C/c1ccc(S(=O)(=O)O)cc1S(=O)(=O)O", "note": "[Compound 2, sodium (Z)-4-((tert-butyloxidoazanylidene)methyl)benzene-1,3-disulfonate, reference compound]", "values": [{"measurement": "improvement of grip strength", "setting": "tMCAO in C57BL/6 mice [1]", "value": 11.8, "unit": "%"}]}
{"smiles": "COc1ccc2nc(Cl)c(/C=[N+](\\[O-])C(C)(C)C)cc2c1", "note": "[Compound 23, (Z)—N-tert-Butyl-1-(2-chloro-6-methoxyquinolin-3-yl)methanimine oxide]", "values": [{"measurement": "ICPE %", "setting": "[2]", "value": "48.5 ± 0.8", "unit": "%"}, {"measurement": "ROS formation", "setting": "[3]", "value": "significantly decreased to the control value"}, {"measurement": "motor deficit compared with vehicle (in words)", "setting": "tMCAO in C57BL/6 mice [4]; 1.5 mg/kg and 2.0 mg/kg, 48 h after treatment", "value": "significant decrease of motor deficit"}, {"measurement": "grip strength compared with vehicle (in words)", "setting": "tMCAO in C57BL/6 mice [4]; 2.0 mg/kg, 24 h after treatment", "value": "improvement in the grip strength which was significant"}, {"measurement": "improvement of grip strength", "setting": "tMCAO in C57BL/6 mice [4]; 48 h after treatment", "value": 20.7, "unit": "%"}, {"measurement": "size of the ischemic lesion (in words)", "setting": "tMCAO in C57BL/6 mice [5]", "value": "significantly lower than in vehicle treated animals"}]}
